In ChEMBL document CHEMBL2073791, “Substituted pyridazino[3,4-b][1,5]benzoxazepin-5(6H)ones as multidrug-resistance modulating agents” (J Med Chem, 2004):

Target: ATP-dependent translocase ABCB1 (Homo sapiens, UniProt P08183)
Experiment: TP_TRANSPORTER: drug resistance (vincristine) in HeLa-MDR1 cells
Type: functional, cell-based

ATP-dependent translocase ABCB1, sequence (P08183 whole entry): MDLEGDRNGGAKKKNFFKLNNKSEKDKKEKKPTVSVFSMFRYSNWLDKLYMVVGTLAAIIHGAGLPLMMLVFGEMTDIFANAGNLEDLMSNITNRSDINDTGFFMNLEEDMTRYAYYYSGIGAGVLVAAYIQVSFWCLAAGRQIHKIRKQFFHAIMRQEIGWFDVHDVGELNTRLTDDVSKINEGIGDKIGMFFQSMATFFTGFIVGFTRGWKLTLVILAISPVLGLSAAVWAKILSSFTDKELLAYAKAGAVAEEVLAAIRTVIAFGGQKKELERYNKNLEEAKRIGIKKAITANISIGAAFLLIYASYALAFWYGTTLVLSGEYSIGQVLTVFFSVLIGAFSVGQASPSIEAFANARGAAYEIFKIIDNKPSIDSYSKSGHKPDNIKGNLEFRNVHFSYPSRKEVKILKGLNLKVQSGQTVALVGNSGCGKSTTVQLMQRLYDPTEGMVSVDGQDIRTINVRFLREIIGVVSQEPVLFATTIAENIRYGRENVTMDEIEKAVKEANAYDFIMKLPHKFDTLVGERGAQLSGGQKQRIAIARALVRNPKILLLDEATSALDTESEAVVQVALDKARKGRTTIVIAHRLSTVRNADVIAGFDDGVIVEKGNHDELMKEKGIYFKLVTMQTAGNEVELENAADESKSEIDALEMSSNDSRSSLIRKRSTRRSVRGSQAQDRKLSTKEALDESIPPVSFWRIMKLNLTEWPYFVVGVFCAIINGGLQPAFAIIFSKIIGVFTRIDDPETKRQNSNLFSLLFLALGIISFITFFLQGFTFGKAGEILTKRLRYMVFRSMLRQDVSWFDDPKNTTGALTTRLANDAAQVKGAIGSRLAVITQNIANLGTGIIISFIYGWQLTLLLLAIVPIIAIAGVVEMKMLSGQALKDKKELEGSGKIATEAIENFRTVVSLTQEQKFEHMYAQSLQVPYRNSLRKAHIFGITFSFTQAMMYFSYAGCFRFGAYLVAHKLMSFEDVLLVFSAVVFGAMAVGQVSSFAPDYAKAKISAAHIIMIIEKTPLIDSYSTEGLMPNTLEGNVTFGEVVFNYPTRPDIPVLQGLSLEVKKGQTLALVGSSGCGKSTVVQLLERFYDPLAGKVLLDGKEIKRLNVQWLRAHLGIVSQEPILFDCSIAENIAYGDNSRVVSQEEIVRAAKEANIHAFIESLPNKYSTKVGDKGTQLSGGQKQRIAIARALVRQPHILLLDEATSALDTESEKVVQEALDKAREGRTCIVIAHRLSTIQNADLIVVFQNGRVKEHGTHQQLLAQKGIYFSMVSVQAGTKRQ

Row | Activity | Structure (SMILES)
1 | substrate [+] | Cc1cc(C)c2c(c1)N(CCCN1CCN(c3ccccc3)CC1)C(=O)c1cc(Cl)nnc1O2
2 | substrate [+] | O=C1c2cc(Cl)nnc2Oc2ccc(C(F)(F)F)cc2N1CCCN1CCN(Cc2ccccc2)CC1
3 | substrate [+] | O=C1c2cc(Cl)nnc2Oc2cc(C(F)(F)F)ccc2N1CCCN1CCN(C(c2ccccc2)c2ccccc2)CC1
4 | substrate [+] | O=C1c2cc(Cl)nnc2Oc2ccc(C(F)(F)F)cc2N1CCCN1CCN(c2ccccc2)CC1
